Data set [1] concerns Ba/F3 KIF5B-RET. Briefly: Cytotoxicity assay (CellTiter-Glo), Ba/F3 KIF5B-RET. It counts as cell-based. Particulars: Mus musculus, BaF3; cell viability, 72 hours, CTG. In general terms: ATP-based viability assays read luminescence as a measure of living cells.
Data set [2] can be described thus: Metabolic stability evaluation, liver microsome assay (HLM). It counts as in vitro ADME. The following applies: pH 7.4, human liver microsomes 0.5 mg/mL, compound 1 μM, NADPH, 37° C. The procedure:
(§1) Microsome assay: human liver microsomes (HLM): 0.5 mg/mL, Xenotech; rat liver microsomes (RLM): 0.5 mg/mL, Xenotech; mice liver microsomes (MLM): 0.5 mg/mL, Xenotech; coenzyme (NADPH/NADH): 1 mM, Sigma Life Science; magnesium chloride: 5 mM, 100 mM phosphate buffer (pH is 7.4).
(§2) Preparation of stock solution: a certain amount of powder of the example compound and the reference compound were accurately weighed, and dissolved to 5 mM with DMSO, respectively.
(§3) Preparation of phosphate buffer (100 mM, pH7.4): Pre-formulated 150 mL 0.5 M potassium dihydrogen phosphate and 700 mL 0.5 M dipotassium hydrogen phosphate solution were mixed, then the pH of the mixture was adjusted to 7.4 with 0.5 M dipotassium hydrogen phosphate solution. Before use, 5-fold dilution was made with ultra-pure water, and magnesium chloride was added to afford phosphate buffer (100 mM), which containing 100 mM potassium phosphate, 3.3 mM magnesium chloride, pH is 7.4.
(§4) NADPH regeneration system solution (containing 6.5 mM NADP, 16.5 mM G-6-P, 3 U/mL G-6-P D, 3.3 mM magnesium chloride) was prepared and placed on wet ice before use.
(§5) Preparation of stop solution: Acetonitrile solution containing 50 ng/mL propranolol hydrochloride and 200 ng/mL tolbutamide (internal standard). 25057.5 μL phosphate buffer (pH 7.4) was taken into a 50 mL centrifuge tube, and 812.5 μL human liver microsome was added, mixed well to afford liver microsome diluent with a protein concentration of 0.625 mg/mL. 25057.5 μL phosphate buffer (pH 7.4) was taken into a 50 mL centrifuge tube, and 812.5 μL SD rat liver microsome was added, respectively, mixed well to afford liver microsome diluent with a protein concentration of 0.625 mg/mL. 25057.5 μL phosphate buffer (pH 7.4) was taken into a 50 mL centrifuge tube, and 812.5 μL mice liver microsome was added, respectively, mixed well to afford liver microsome diluent with a protein concentration of 0.625 mg/mL.
(§6) Incubation of the sample: The stock solutions of the corresponding compounds were diluted to 0.25 mM with an aqueous solution containing 70% acetonitrile as working solutions for use. 398 μL of human liver microsome or rat liver microsome or mice liver microsome diluent was taken and added to a 96-well incubation plate (N=2), respectively, and 2 μL of 0.25 mM working solution was then added respectively, and mixed well.
(§7) Determination of metabolic stability: 300 μL of pre-chilled stop solution was added to each well of a 96-well deep well plate and the plate was placed on ice as a stop plate. The 96-well incubation plate and NADPH regeneration system were placed in a 37° C. water bath box, shook at 100 rpm, and pre-incubated for 5 min. 80 μL of incubation solution was taken from each well of the incubation plate and added to the stop plate, mixed well, and 20 μL of NADPH regeneration system solution was supplemented, the resulted solution was considered as sample at 0 min. Then 80 μL of NADPH regeneration system solution was added to each well of the incubation plate to start the reaction and started timing. The reaction concentration of the corresponding compound is 1 μM, and the protein concentration is 0.5 mg/mL. 100 μL reaction solution was taken at 10, 30, 90 min of reaction, respectively, and added into stop plate, the reaction was stopped with 3 min vortex. The stop plate was centrifuged at 5000×g, 4° C. for 10 min. 100 μL of supernatant was taken to a 96-well plate where 100 μL of distilled water was added in advance, mixed well, sample analysis was subjected by LC-MS/MS.
(§8) Data analysis: LC-MS/MS system was used to detect peak area of corresponding compound and internal standard, peak area ratio of compound and internal standard was calculated.
(§9) [formula] t1/2(min); CLint(μL/min/mg).
For orientation: Liver microsomes are vesicles of endoplasmic reticulum, rich in cytochrome P450 enzymes.

The nature of data set [3]: Metabolic stability evaluation, liver microsome assay (RLM). It counts as in vitro ADME, SD rat. The following applies: Sprague-Dawley, pH 7.4, rat liver microsomes 0.5 mg/mL, compound 1 μM, NADPH, 37° C. The procedure: as §1, §2, §3, §4, §5, §6, §7, §8, §9
For data set [4], the system named is Ba/F3 parental. Briefly: cells. The following applies: Mus musculus, BaF3, 72 h, read-out: IC50 (nM) Ba/F3 parental.
The nature of data set [5]: Metabolic stability evaluation, liver microsome assay (MLM). Particulars: mouse, mouse liver microsomes, pH 7.4, mice liver microsomes 0.5 mg/mL, compound 1 μM, NADPH, 37° C. It counts as in vitro ADME. The procedure: as §1, §2, §3, §4, §5, §6, §7, §8, §9
Data set [6] relates to Ba/F3 KIF5B-RET^V804M. As to the kind of experiment: Cytotoxicity assay (CellTiter-Glo), Ba/F3 KIF5B-RET V804M. It counts as cell-based. Particulars: Mus musculus, BaF3; cell viability, 72 hours, CTG.

For the compound `[2H]C([2H])([2H])Oc1ccc(C([2H])([2H])N2C3CC2CN(c2ccc(-c4cc(OCC(C)(C)O)cn5ncc(C#N)c45)cn2)C3)cn1` [Example 13, 6-(2-hydroxy-2-methylpropoxy)-4-(6-(6-((6-(methoxy-d3)pyridin-3-yl)methyl-d2)-3,6-diazabicyclo[3.1.1]heptan-3-yl)pyridin-3-yl)pyrazolo[1,5-a]pyridine-3-carbonitrile], the IC50 in data set [1] was 23.5 nM; in data set [4] it was > 10000 nM; in data set [6] it was 90 nM. Further, the intrinsic clearance (microsomal CLint) (in general, a measure of how fast metabolising enzymes remove a compound, apart from limits set by blood flow) at 1 μM in data set [2] amounted to 92.2 µL/min/mg; in data set [3], 10.8 µL/min/mg; in data set [5] it was 42.8 µL/min/mg. Further, the results for the half-life at 1 μM in data set [2] (read-out: HLM t1/2), in data set [3] (read-out: RLM t1/2) and in data set [5] (read-out: MLM t1/2) were 15 min, 128 min and 32.4 min, respectively.

Values taken from US12129266B2, “Substituted pyrazolo[1,5-a]pyridine compound, composition containing the same and use thereof” (Shenzhen TargetRx, Inc., priority 2018, dated 2024).
